According to publication PMC7640924 (Bioorganic & Medicinal Chemistry Letters, 2020):

Assays:
SARS-CoV-2 = assay: Anti-SARS-CoV-2 activity, cellular phenotypic screening; assay type: cell-based; conditions: Vero cells
hERG = hERG (Homo sapiens, UniProt Q12809); assay: hERG inhibition; assay type: binding
Microsomal stability = assay type: in vitro ADME; conditions: human

Chain of hERG (Q12809 whole entry): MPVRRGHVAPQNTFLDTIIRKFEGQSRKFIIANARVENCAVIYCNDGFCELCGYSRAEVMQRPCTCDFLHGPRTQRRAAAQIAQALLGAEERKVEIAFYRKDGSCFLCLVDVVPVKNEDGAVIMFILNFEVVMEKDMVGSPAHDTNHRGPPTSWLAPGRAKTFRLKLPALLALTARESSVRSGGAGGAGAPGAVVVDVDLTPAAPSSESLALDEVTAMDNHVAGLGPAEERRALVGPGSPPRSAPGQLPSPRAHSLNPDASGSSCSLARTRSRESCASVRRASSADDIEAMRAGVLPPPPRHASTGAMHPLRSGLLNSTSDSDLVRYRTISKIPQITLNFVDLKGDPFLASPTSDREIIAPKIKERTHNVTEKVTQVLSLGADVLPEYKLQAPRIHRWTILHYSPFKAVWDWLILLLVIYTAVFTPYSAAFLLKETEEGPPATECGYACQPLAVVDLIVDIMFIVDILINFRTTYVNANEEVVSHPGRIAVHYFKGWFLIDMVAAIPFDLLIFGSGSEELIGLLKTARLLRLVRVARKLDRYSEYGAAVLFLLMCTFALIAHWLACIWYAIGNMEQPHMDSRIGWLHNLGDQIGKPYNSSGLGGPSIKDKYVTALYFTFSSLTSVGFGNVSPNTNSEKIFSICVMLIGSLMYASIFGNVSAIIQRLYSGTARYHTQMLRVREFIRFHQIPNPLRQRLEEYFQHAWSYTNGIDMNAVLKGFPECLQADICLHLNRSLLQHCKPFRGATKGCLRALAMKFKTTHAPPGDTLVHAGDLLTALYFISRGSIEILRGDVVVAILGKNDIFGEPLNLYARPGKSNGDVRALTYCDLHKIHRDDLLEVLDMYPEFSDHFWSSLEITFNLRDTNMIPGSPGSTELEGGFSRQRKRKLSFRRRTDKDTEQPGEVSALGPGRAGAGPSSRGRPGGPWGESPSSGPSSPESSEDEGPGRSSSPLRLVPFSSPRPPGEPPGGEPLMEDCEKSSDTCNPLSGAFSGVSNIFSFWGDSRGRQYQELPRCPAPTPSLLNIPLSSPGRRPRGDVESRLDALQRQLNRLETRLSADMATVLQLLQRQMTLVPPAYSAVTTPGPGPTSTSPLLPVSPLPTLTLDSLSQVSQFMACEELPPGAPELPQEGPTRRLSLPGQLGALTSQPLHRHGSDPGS

SMILES | anti-SARS-CoV-2 activity (in words) (SARS-CoV-2) | hERG binding (in words) (hERG) | microsomal stability (in words) (Microsomal stability)
CCNC(=O)CN1C(C(=O)c2ccccc2)=C(O)c2ccccc2S1(=O)=O [Compound 4f, 2-(3-Benzoyl-4-hydroxy-1,1-dioxido-2H-benzo[e][1,2]thiazin-2-yl)-N-ethylacetamide] | detrimental for anti-SARS-CoV-2 activities |  | 
O=C(CN1C(C(=O)c2ccc(F)c(Cl)c2)=C(O)c2ccc(F)cc2S1(=O)=O)Nc1ccc(C(F)(F)F)cc1 [Compound 13c, 2-(3-(3-Chloro-4-fluorobenzoyl)-7-fluoro-4-hydroxy-1,1-dioxido-2H-benzo[e][1,2]thiazin-2-yl)-N-(4-(trifluoromethyl)phenyl)acetamide] |  | low binding with hERG | good microsomal stability
O=C(O)/C=C/N1C(C(=O)c2ccc(F)c(Cl)c2)=C(O)c2ccccc2S1(=O)=O [Compound 7, (E)-3-(3-(3-Chloro-4-fluorobenzoyl)-4-hydroxy-1,1-dioxido-2H-benzo[e][1,2]thiazin-2-yl)acrylic acid] | no antiviral effect |  | 
N#Cc1ccc(C(=O)C2=C(O)c3ccccc3S(=O)(=O)N2CC(=O)c2ccc(F)c(Cl)c2)cc1 [Compound 5c, 4-(2-(2-(3-Chloro-4-fluorophenyl)-2-oxoethyl)-4-hydroxy-1,1-dioxido-2H-benzo[e][1,2]thiazine-3-carbonyl)benzonitrile] | no anti-SARS-CoV-2 activities |  | 
N#Cc1cccc(C(=O)C2=C(O)c3ccccc3S(=O)(=O)N2CC(=O)c2ccc(F)c(Cl)c2)c1 [Compound 5b, 3-(2-(2-(3-Chloro-4-fluorophenyl)-2-oxoethyl)-4-hydroxy-1,1-dioxido-2H-benzo[e][1,2]thiazine-3-carbonyl)benzonitrile] | no anti-SARS-CoV-2 activities |  | 
O=C(C1=C(O)c2ccccc2S(=O)(=O)N1Cc1ccccc1)c1ccccc1 [Compound 5a, (2-Benzyl-4-hydroxy-1,1-dioxido-2H-benzo[e][1,2]thiazin-3-yl)(phenyl)methanone] | no anti-SARS-CoV-2 activities |  | 
O=C(CN1C(C(=O)c2ccc(F)cc2)=C(O)c2ccccc2S1(=O)=O)Nc1ccccc1 [Compound 4a, 2-(3-(4-fluorobenzoyl)-4-hydroxy-1,1-dioxido-2H-benzo[e][1,2]thiazin-2-yl)-N-phenylacetamide] | no inhibitory effect |  | 
O=C(CN1C(C(=O)c2ccc(F)cc2)=C(O)c2ccccc2S1(=O)=O)Nc1ccccc1Cl [Compound 4b, N-(2-Chlorophenyl)-2-(3-(4-fluorobenzoyl)-4-hydroxy-1,1-dioxido-2H-benzo[e][1,2]thiazin-2-yl)acetamide] | no inhibitory effect |  | 
